Data taken from article PMC12508156, “Non-canonical dihydrolipoyl transacetylase promotes chemotherapy resistance via mitochondrial tetrahydrofolate signaling” (Nature Communications, 2025).
Several values for one entry are separate records, joined by “and”; a condition that tells them apart may be missing. Equal values may be shown once.

How the values were obtained:
[1] = system: lung cancer patient-derived xenograft tumors; test: IHC of lung cancer PDX tumors (Ac-K44 MTHFD2, MT-CO2, DLAT); assay type: in vivo, athymic nu/nu mice; design: key: IHC intensity score 0 to 3+; details: lung cancer PDX tumors (Figure 8M)
Source text: Formalin-fixed and paraffin-embedded tumor tissue specimens from HNSCC and NSCLC patients were obtained from the […] Cancer Tissue and Pathology Shared Resources. The Institutional Review Board (IRB) of Emory University approved using human specimens (IRB00003208 - HNSCC, IRB00098377 - NSCLC). Clinical samples were collected with informed consent according to the Health Insurance Portability and Accountability Act. Patients' clinical information was obtained through the […] Technology Applications Shared Resource. Tumors from HNSCC or NSCLC patients who received chemotherapy-containing regimens were used. Immunohistochemistry (IHC) staining of DLAT, acetyl-[…] MTHFD2, MT-CO2, and Ki-67 was performed based on the established protocol. Antigen retrieval was conducted in Tris-EDTA (pH 9.0) for acetyl-[…] MTHFD2 and MT-CO2 and sodium citrate (pH 6.0) for the remaining antigens. […] Assessment of positive DLAT, MT-CO2, and acetyl-[…] MTHFD2 staining intensity within tumor cells was performed using a scoring system ranging from 0 to 3+ based on IHC signal intensity. Mice were subcutaneously injected into the flank with 1 × 10^6 KB-3-1^cisR cells with or without DLAT knockdown. […] Tumors were collected at the experimental endpoint, and tumor proliferation was assessed using Ki-67 IHC staining. The localization, penetration, and efficacy of DMp39 were monitored by assessing the acetyl-[…] levels in tumors and fluorescence imaging analysis using an IVIS imaging system. Drug-induced organ toxicities, including splenomegaly, liver damage, and kidney injury, were monitored by assessing spleen index, alanine transaminase activity, and cystatin C levels in plasma.

A549cisR cells = test: Colony formation assay; assay type: cell-based, human; details: 2 μg/ml cisplatin 24 h, then 10 days, normalised, n=1-3: biological replicates
Description: (§1) Cell viability was determined using the CellTiter-Glo Luminescent Cell Viability Assay. […] Subsequently, the cells were cultured in complete medium for an additional 10 days, and the resulting colonies were visualized by staining with crystal violet and quantified using ImageJ software. For cell cycle analysis, cells fixed with 70% ethanol were stained with RNase A (100 µg/mL) and propidium iodide (50 μg/ml) for 30 min at 37 °C, and DNA content distribution was measured using flow cytometry (BD Symphony A3) and analyzed with FlowJo software (v10.9). Apoptotic cell death was assessed via FITC-conjugated annexin V and propidium iodide staining.

KB-3-1cisR cells = test: Colony formation assay; assay type: cell-based, human; details: 5 μg/ml cisplatin 24 h, then 10 days, normalised, n=1-3: biological replicates
Description: as §1

GSH/GSSG = GSH/GSSG ratio (GSH/GSSG-Glo); assay type: cell-based, human
Description: (§2) Cellular metabolic states were examined through various assays. To gauge the levels of total intracellular or mitochondrial reactive oxygen species (ROS), cells were stained with CM-H2DCFDA or mitoSOX, respectively. Intracellular H2O2, NADPH, acetyl-CoA, and GSH/GSSG ratios were quantified using commercial assay kits as listed in the Reagents. Intracellular ATP levels were determined utilizing the ATP bioluminescent somatic cell assay and normalized to the total protein concentrations. The de novo synthesized RNA and proteins were assessed in cancer cells using commercial assays following the manufacturer’s protocols. In brief, O-propargyl-puromycin or uridine analog, 5-EU, was applied to stop translation or modify RNA. Polypeptides or modified RNA were measured using fluorescent azide with Ex/Em at 494/521 nm. PDC activity was determined by measuring the reduction of NAD+ to NADH during the conversion of pyruvate into acetyl-CoA.
Supplementary Fig. 2: GSH/GSSG ratio and NADPH level change upon DLAT knockdown and cisplatin treatment. A549cisR (a) and KB-3-1cisR (b) cells were transduced with control or […]
µg/ml; KB-3-1cisR: 5 µg/ml) for 24 h. The GSH/GSSG ratio and relative NADPH levels were measured using GSH/GSSG-Glo Assay and NADP/NADPH-Glo Assay, respectively. Error bars represent SD and are from 4 independent biological replicates for the upper panels of (a,b) and 3 for the lower panels of (a,b). P values were determined by one-way ANOVA.
(1 picture or pasted object on this page, not shown here)

RNA synthesis = test: Global RNA synthesis (5-EU labeling); assay type: cell-based, human; design: unit not given here
Description: as §2

In the case of `N.N.[Cl][Pt][Cl]` [cisplatin], the “Ac-K44 (IHC score)” value ([1]; n=1) is reported as 2, the “DLAT (IHC score)” value ([1]; n=1) is reported as 1 and the “MT-CO2 (IHC score)” value ([1]; n=1) is reported as 3. For the same compound, the “Ac-K44 (IHC score)” value ([1]; n=2) was 2, the “DLAT (IHC score)” value ([1]; n=2) was 2 and the “MT-CO2 (IHC score)” value ([1]; n=2) was 3. For the same compound, the “Ac-K44 (IHC score)” value ([1]; n=3) was 3, the “DLAT (IHC score)” value ([1]; n=3) was 3 and the “MT-CO2 (IHC score)” value ([1]; n=3) was 3. The “Ac-K44 (IHC score)” value ([1]; n=4) was 3, the “DLAT (IHC score)” value ([1]; n=4) was 2 and the “MT-CO2 (IHC score)” value ([1]; n=4) was 2. For the same compound, the “Ac-K44 (IHC score)” value ([1]; n=5) was 2, the “DLAT (IHC score)” value ([1]; n=5) was 2 and the “MT-CO2 (IHC score)” value ([1]; n=5) was 3. The Colony formation assay (A549cisR cells; A549cisR pLKO.1) was 1.111 and 0.9965 and 1.059, the Colony formation assay (A549cisR cells; A549cisR shDLAT #1) was 0.545 and 0.5035 and 0.4723 and the Colony formation assay (A549cisR cells; A549cisR shDLAT #2) was 0.5398 and 0.5242 and 0.4931. The Colony formation assay (KB-3-1cisR cells; KB-3-1cisR pLKO.1) was 0.9446 and 0.763 and 0.8564, the Colony formation assay (KB-3-1cisR cells; KB-3-1cisR shDLAT #1) was 0.1843 and 0.1505 and 0.2102 and the Colony formation assay (KB-3-1cisR cells; KB-3-1cisR shDLAT #2) was 0.2154 and 0.1946 and 0.1246. It also gave a GSH/GSSG (GSH/GSSG; A549cisR cells, pLKO.1, n=2) of 20.0066, a GSH/GSSG (GSH/GSSG; A549cisR cells, shDLAT, n=3) of 8.945 and a GSH/GSSG (GSH/GSSG; KB-3-1cisR cells, shDLAT, n=1) of 6.046. For the same compound, the GSH/GSSG (GSH/GSSG; KB-3-1cisR cells, shDLAT, n=2) was 6.2227, the “Global RNA synthase” value (RNA synthesis; A549cisR, pLKO.1, n=1 (Figure 3B)) was 35.2 and the “Global RNA synthase” value (RNA synthesis; A549cisR, pLKO.1, n=2 (Figure 3B)) was 34.2. For the same compound, the “Global RNA synthase” value (RNA synthesis; A549cisR, pLKO.1, n=3 (Figure 3B)) was 34.8, the “Global RNA synthase” value (RNA synthesis; A549cisR, shDLAT, n=1 (Figure 3B)) was 36.6 and the “Global RNA synthase” value (RNA synthesis; A549cisR, shDLAT, n=2 (Figure 3B)) was 34. For the same compound, the “Global RNA synthase” value (RNA synthesis; A549cisR, shDLAT, n=3 (Figure 3B)) was 33, the “Global RNA synthase” value (RNA synthesis; KB-3-1cisR, pLKO.1, n=1 (Figure 3B)) was 34.8 and the “Global RNA synthase” value (RNA synthesis; KB-3-1cisR, pLKO.1, n=2 (Figure 3B)) was 33.4. The “Global RNA synthase” value (RNA synthesis; KB-3-1cisR, pLKO.1, n=3 (Figure 3B)) was 32.4, the “Global RNA synthase” value (RNA synthesis; KB-3-1cisR, shDLAT, n=1 (Figure 3B)) was 33.6 and the “Global RNA synthase” value (RNA synthesis; KB-3-1cisR, shDLAT, n=2 (Figure 3B)) was 31.4. For the same compound, the “Global RNA synthase” value (RNA synthesis; KB-3-1cisR, shDLAT, n=3 (Figure 3B)) was 31.6.
